Reference: patent publication US6818203B2, “Use of perfluoroalkyl-containing metal complexes as contrast media in MR-imaging for visualization of plaque, tumors and necroses” (Schering Aktiengesellschaft, priority 2000, dated 2004)
Each block holds one compound with its values, some of them ahead of it.

Assay: organ distribution (including lymph node concentration) after intravenous administration in rats
Type: in vivo
Conditions: 24 hours after administration
Method: (§1) After intravenous administration of 100 μmol of total gadolinium/kg of body weight of a polar Gd-chelate with perfluorinated side chains (metal complex X) in rats, the metal content in various organs as well as in the lymph nodes (pooled as mesenteric and peripheral lymph nodes) was determined 24 hours after administration (MW, n=2).
as §1, with “200” for “100”, “V)” for “X)”
as §1, with “200” for “100”, “III)” for “X)”

[1] = Mesenteric lymph nodes, 200 μmol Gd/kg i.v.
[2] = Peripheral lymph nodes, 200 μmol Gd/kg i.v.
[3] = Mesenteric lymph nodes, 100 μmol Gd/kg i.v.
[4] = Peripheral lymph nodes, 100 μmol Gd/kg i.v.

metal content (Blood, 200 μmol Gd/kg i.v.): 83 μmol Gd/L
metal content, % Dose (Blood, 200 μmol Gd/kg i.v.): 1.15 % Dose
metal content (Brain, 200 μmol Gd/kg i.v.): 10 μmol Gd/L
metal content, % Dose (Brain, 200 μmol Gd/kg i.v.): 0.05 % Dose
metal content (Carcass, 200 μmol Gd/kg i.v.): 242 μmol Gd/L
metal content, % Dose (Carcass, 200 μmol Gd/kg i.v.): 36.30 % Dose
metal content (Femur, 200 μmol Gd/kg i.v.): 76 μmol Gd/L
metal content, % Dose (Femur, 200 μmol Gd/kg i.v.): 0.32 % Dose
metal content (Heart, 200 μmol Gd/kg i.v.): 82 μmol Gd/L
metal content, % Dose (Heart, 200 μmol Gd/kg i.v.): 0.13 % Dose
metal content (Intestine, 200 μmol Gd/kg i.v.): 230 μmol Gd/L
metal content, % Dose (Intestine, 200 μmol Gd/kg i.v.): 3.56 % Dose
metal content (Kidneys, 200 μmol Gd/kg i.v.): 489 μmol Gd/L
metal content, % Dose (Kidneys, 200 μmol Gd/kg i.v.): 1.97 % Dose
metal content (Liver, 200 μmol Gd/kg i.v.): 1222 μmol Gd/L
metal content, % Dose (Liver, 200 μmol Gd/kg i.v.): 26.28 % Dose
metal content (Lung, 200 μmol Gd/kg i.v.): 338 μmol Gd/L
metal content, % Dose (Lung, 200 μmol Gd/kg i.v.): 0.96 % Dose
metal content [1]: 455 μmol Gd/L
metal content, % Dose [1]: 0.33 % Dose
metal content (Muscle, 200 μmol Gd/kg i.v.): 28 μmol Gd/L
metal content, % Dose (Muscle, 200 μmol Gd/kg i.v.): 0.04 % Dose
metal content (Pancreas, 200 μmol Gd/kg i.v.): 203 μmol Gd/L
metal content, % Dose (Pancreas, 200 μmol Gd/kg i.v.): 0.48 % Dose
metal content [2]: 279 μmol Gd/L
metal content, % Dose [2]: 0.18 % Dose
metal content (Spleen, 200 μmol Gd/kg i.v.): 464 μmol Gd/L
metal content, % Dose (Spleen, 200 μmol Gd/kg i.v.): 0.89 % Dose
metal content (Stomach, 200 μmol Gd/kg i.v.): 165 μmol Gd/L
metal content, % Dose (Stomach, 200 μmol Gd/kg i.v.): 0.57 % Dose
metal content, % Dose (Total, 200 μmol Gd/kg i.v.): 73.20 % Dose
Compound: O=C([O-])CN1CCN(CC(=O)[O-])CCN(CC(O)CNC(=O)CCCC(=O)N2CCN(C(F)(F)C(F)(F)C(F)(F)C(F)(F)C(F)(F)C(F)(F)C(F)(F)C(F)(F)F)CC2)CCN(CC(=O)[O-])CC1.[Gd+3] (stereo not drawn) [metal complex III]

metal content (Blood, 200 μmol Gd/kg i.v.): 15 μmol Gd/L
metal content, % Dose (Blood, 200 μmol Gd/kg i.v.): 0.18 % Dose
metal content (Brain, 200 μmol Gd/kg i.v.): 4 μmol Gd/L
metal content, % Dose (Brain, 200 μmol Gd/kg i.v.): 0.02 % Dose
metal content (Carcass, 200 μmol Gd/kg i.v.): 268 μmol Gd/L
metal content, % Dose (Carcass, 200 μmol Gd/kg i.v.): 37.93 % Dose
metal content (Femur, 200 μmol Gd/kg i.v.): 13 μmol Gd/L
metal content, % Dose (Femur, 200 μmol Gd/kg i.v.): 0.05 % Dose
metal content (Heart, 200 μmol Gd/kg i.v.): 14 μmol Gd/L
metal content, % Dose (Heart, 200 μmol Gd/kg i.v.): 0.02 % Dose
metal content (Intestine, 200 μmol Gd/kg i.v.): 113 μmol Gd/L
metal content, % Dose (Intestine, 200 μmol Gd/kg i.v.): 1.56 % Dose
metal content (Kidneys, 200 μmol Gd/kg i.v.): 436 μmol Gd/L
metal content, % Dose (Kidneys, 200 μmol Gd/kg i.v.): 1.77 % Dose
metal content (Liver, 200 μmol Gd/kg i.v.): 344 μmol Gd/L
metal content, % Dose (Liver, 200 μmol Gd/kg i.v.): 6.34 % Dose
metal content (Lung, 200 μmol Gd/kg i.v.): 62 μmol Gd/L
metal content, % Dose (Lung, 200 μmol Gd/kg i.v.): 0.17 % Dose
metal content [1]: 70 μmol Gd/L
metal content, % Dose [1]: 0.05 % Dose
metal content (Muscle, 200 μmol Gd/kg i.v.): 9 μmol Gd/L
metal content, % Dose (Muscle, 200 μmol Gd/kg i.v.): 0.02 % Dose
metal content (Pancreas, 200 μmol Gd/kg i.v.): 30 μmol Gd/L
metal content, % Dose (Pancreas, 200 μmol Gd/kg i.v.): 0.05 % Dose
metal content [2]: 44 μmol Gd/L
metal content, % Dose [2]: 0.02 % Dose
metal content (Spleen, 200 μmol Gd/kg i.v.): 116 μmol Gd/L
metal content, % Dose (Spleen, 200 μmol Gd/kg i.v.): 0.17 % Dose
metal content (Stomach, 200 μmol Gd/kg i.v.): 28 μmol Gd/L
metal content, % Dose (Stomach, 200 μmol Gd/kg i.v.): 0.08 % Dose
metal content, % Dose (Total, 200 μmol Gd/kg i.v.): 48.43 % Dose
Compound: CC(C(=O)NCC(=O)N(CCOCCC(F)(F)C(F)(F)C(F)(F)C(F)(F)C(F)(F)C(F)(F)C(F)(F)C(F)(F)F)CC(O)CO)N1CCN(CC(=O)[O-])CCN(CC(=O)[O-])CCN(CC(=O)[O-])CC1.[Gd+3] (stereo not drawn) [metal complex V]

metal content (Blood, 100 μmol Gd/kg i.v.): 1 μmol Gd/L
metal content, % Dose (Blood, 100 μmol Gd/kg i.v.): 0.01 % Dose
metal content (Brain, 100 μmol Gd/kg i.v.): 1 μmol Gd/L
metal content, % Dose (Brain, 100 μmol Gd/kg i.v.): 0.01 % Dose
metal content (Carcass, 100 μmol Gd/kg i.v.): 192 μmol Gd/L
metal content, % Dose (Carcass, 100 μmol Gd/kg i.v.): 34.01 % Dose
metal content (Femur, 100 μmol Gd/kg i.v.): 3 μmol Gd/L
metal content, % Dose (Femur, 100 μmol Gd/kg i.v.): 0.01 % Dose
metal content (Heart, 100 μmol Gd/kg i.v.): 3 μmol Gd/L
metal content, % Dose (Heart, 100 μmol Gd/kg i.v.): 0.01 % Dose
metal content (Intestine, 100 μmol Gd/kg i.v.): 65 μmol Gd/L
metal content, % Dose (Intestine, 100 μmol Gd/kg i.v.): 1.22 % Dose
metal content (Kidneys, 100 μmol Gd/kg i.v.): 150 μmol Gd/L
metal content, % Dose (Kidneys, 100 μmol Gd/kg i.v.): 0.65 % Dose
metal content (Liver, 100 μmol Gd/kg i.v.): 104 μmol Gd/L
metal content, % Dose (Liver, 100 μmol Gd/kg i.v.): 2.34 % Dose
metal content (Lung, 100 μmol Gd/kg i.v.): 18 μmol Gd/L
metal content, % Dose (Lung, 100 μmol Gd/kg i.v.): 0.05 % Dose
metal content [3]: 19 μmol Gd/L
metal content, % Dose [3]: 0.01 % Dose
metal content (Muscle, 100 μmol Gd/kg i.v.): 1 μmol Gd/L
metal content, % Dose (Muscle, 100 μmol Gd/kg i.v.): 0.00 % Dose
metal content (Pancreas, 100 μmol Gd/kg i.v.): 6 μmol Gd/L
metal content, % Dose (Pancreas, 100 μmol Gd/kg i.v.): 0.02 % Dose
metal content [4]: 11 μmol Gd/L
metal content, % Dose [4]: 0.01 % Dose
metal content (Spleen, 100 μmol Gd/kg i.v.): 54 μmol Gd/L
metal content, % Dose (Spleen, 100 μmol Gd/kg i.v.): 0.07 % Dose
metal content (Stomach, 100 μmol Gd/kg i.v.): 49 μmol Gd/L
metal content, % Dose (Stomach, 100 μmol Gd/kg i.v.): 0.18 % Dose
metal content, % Dose (Total, 100 μmol Gd/kg i.v.): 38.58 % Dose
Compound: COCCN(CCOCCC(F)(F)C(F)(F)C(F)(F)C(F)(F)C(F)(F)C(F)(F)C(F)(F)C(F)(F)F)C(=O)CNC(=O)C(C)N1CCN(CC(=O)[O-])CCN(CC(=O)[O-])CCN(CC(=O)[O-])CC1.[Gd+3] (stereo not drawn) [metal complex X]
